Assay results taken from US6569895B1, “Compounds and methods for the treatment of cardiovascular, inflammatory and immune disorders” (Millennium Pharmaceuticals, Inc., priority 1995, dated 2003).
Several values for one entry are separate records, joined by “and”; a condition that tells them apart may be missing. Equal entries are not always repeated.

Tests used:
[1] = molecular target: T1, Cytosol 5-Lipoxygenase of Rat Basophile Leukemia Cells (Rattus norvegicus, UniProt P12527); assay: Cytosol 5-lipoxygenase of rat basophilic leukemia cells (RBL-2H3 preparation); format: biochemical; settings: RBL-2H3 cytosol preparation, [14C]arachidonic acid
T1 construct: endogenous in cells; host or cells: RBL-2H3 cells (sonicate, 20,000 x g supernatant)
T1 sequence (P12527 1-673): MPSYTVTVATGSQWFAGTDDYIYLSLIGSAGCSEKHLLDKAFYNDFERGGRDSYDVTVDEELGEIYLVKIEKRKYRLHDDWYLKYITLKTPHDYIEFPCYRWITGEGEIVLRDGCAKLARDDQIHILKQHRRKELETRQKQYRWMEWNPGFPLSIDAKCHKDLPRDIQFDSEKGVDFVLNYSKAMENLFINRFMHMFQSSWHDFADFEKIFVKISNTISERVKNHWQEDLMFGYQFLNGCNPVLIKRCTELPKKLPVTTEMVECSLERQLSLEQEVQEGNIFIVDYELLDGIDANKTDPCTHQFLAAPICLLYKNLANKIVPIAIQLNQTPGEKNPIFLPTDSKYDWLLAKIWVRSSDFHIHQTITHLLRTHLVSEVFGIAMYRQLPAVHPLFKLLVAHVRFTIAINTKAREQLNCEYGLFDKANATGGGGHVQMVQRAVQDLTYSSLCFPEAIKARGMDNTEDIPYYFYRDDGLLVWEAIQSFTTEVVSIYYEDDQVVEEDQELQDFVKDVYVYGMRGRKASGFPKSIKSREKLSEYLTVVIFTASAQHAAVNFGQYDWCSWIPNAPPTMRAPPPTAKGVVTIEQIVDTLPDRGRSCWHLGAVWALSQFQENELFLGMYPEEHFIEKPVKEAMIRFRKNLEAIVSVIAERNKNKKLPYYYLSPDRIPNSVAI
Method: A wide variety of biological assays have also been used to evaluate the ability of a compound to inhibit the enzyme 5-lipoxygenase. For example, a cytosol 5-lipoxygenase of rat basophilic leukemia cells (RBL) has been widely utilized in studies on leukotriene biosynthesis. Compounds that inhibit 5-lipoxygenase decrease the levels of leukotrienes.
RBL-2H3 cells were grown to confluence in tissue culture flasks according to Carter et al. (J Pharm Exp Ther 256(3); 929-937, 1991). The cells were harvested and washed five times in calcium-and magnesium-free D-PBS. The cells were suspended at 2×10^7/M in 10 mM BES, 10 mM PIPES, pH 6.8, 1 mM EDTA and then sonicated. The sonicate was centrifuged at 20,000×g for 20 minutes at 4° C. The supernatant was then removed and stored in aliquots at −70° C.
The 5-LO activity in the RBL-2H3 preparation was determined as follows: 0.1 ml reactions consisting of 0.7 mM CaCl2, 100 mM NaCl, 1 mM EDTA, 10 mM BES, 10 MM PIPES, pH 7.4, varying concentrations of test compound dissolved in DMSO (7.5% DMSO final in assay), and an amount of the RBL-2H3 preparation that will convert 15% of the arachidonic acid substrate mixture to oxygenated products (determined experimentally for each RBL-2H3preparation), were incubated for 20 minutes at room temperature. The reaction was initiated by the addition of 5 μl of the arachidonic acid substrate mixture (0.944 nmol [^14C] arachidonic acid and 6.06 nmol arachidonic acid per assay in 0.028% NH4OH), and allowed to proceed for 5 minutes at 37° C. The reaction was terminated by the addition of 0.12 ml of a mixture of (i) 1.66 mg/ml triphenylphosphine in ethyl ether; (ii) methanol; and (iii) 0.2M citric acid (30:4:1); followed by centrifugation at 1000×g for 1 minute. […] The film was developed, scanned using a densitometer, and the peak areas of arachidonic acid and its product(s) are calculated. The percent inhibition was determined from the amount of [14C]-arachidonic acid converted into oxygenated products in samples containing test compound relative to that of control samples (no test compound).

[2] = system: 5-Lipoxygenase (LTB4 in whole blood); assay: Ex-vivo mouse whole blood 5-lipoxygenase evaluation (LTB4); format: in vivo; settings: 3 mg/k iv, 60 minutes
Method: (§1) CD-1 female mice, weighing 18-25 grams, and CD female rats, weighing 150-230 grams, were obtained from Charles River Labs. Test compounds were dissolved in 0.5% DMSO in 0.9% NaCl, for administration in mice (0.5 mg/ml) and in an alcohol vehicle (2% benzyl alcohol, 1% ethanol, 40% PEG 300, 10% propylene glycol, 47% of 5% dextrose and 3.5% pluronic F-68 in DiH2O) for use in rats (5 mg/ml). […] Heparinized whole blood (0.3 ml) was added into 1.5 ml Eppendorf centrifuge tube containing […] of 2 mM calcium ionophore A23187 (the final concentration of A23187 was […]). The sample was incubated for 30 minutes in a water bath at 37° C., and then centrifuged for 2 minutes. The plasma was diluted (×120) and assayed for LTB4 using EIA.

[3] = system: 5-Lipoxygenase (LTB4 in whole blood); assay: Ex-vivo rat whole blood 5-lipoxygenase evaluation (LTB4); format: in vivo; settings: 2 mg/k po
Method: as §1

[4] = system: Leukotriene B4 production in ionophore-stimulated human whole blood; assay: Inhibition of leukotriene B4 production in ionophore-stimulated human whole blood; format: cell-based; settings: A23187 stimulated, LTB4 by EIA, read-out: HWB IC50
Method: Another biological assay used to evaluate the ability of a compound to inhibit the enzyme 5-lipoxygenase is based on the classic pharmacological model of inflammation induced by inhibition of LTB, from ionophore stimulated human whole blood.
Human blood was drawn into heparinized blood collection tubes, and aliquoted in 1 ml portions into 1.5 ml microfuge tubes. Test compound ([…]) of varying concentrations, dissolved in DMSO, was added to the blood sample and incubated for 15 minutes at 37° C. Calcium ionophore ([…], A23187) in DMSO was added to a final concentration of […], and the samples were incubated for 30 minutes at 37° C. Samples are then centrifuged at 1100×g (2500 rpm, H1000B rotor, in a Sorvall centrifuge) for 10 minutes at 4° C. Supernatant ([…]) was transferred into a 1.5 ml microfuge tube, […] of cold methanol added, and proteins precipitated on ice for 30 minutes. The samples were centrifuged at 110×g for 10 minutes at 4° C., and the supernatant assayed for LTB4 using a commercially available EIA kit (Cayman Chemical) according to manufacturer's specifications.

[5] = molecular target: PAF (Homo sapiens, UniProt P25105); settings: background statement; cited from earlier work
Sequence of PAF (P25105 whole entry): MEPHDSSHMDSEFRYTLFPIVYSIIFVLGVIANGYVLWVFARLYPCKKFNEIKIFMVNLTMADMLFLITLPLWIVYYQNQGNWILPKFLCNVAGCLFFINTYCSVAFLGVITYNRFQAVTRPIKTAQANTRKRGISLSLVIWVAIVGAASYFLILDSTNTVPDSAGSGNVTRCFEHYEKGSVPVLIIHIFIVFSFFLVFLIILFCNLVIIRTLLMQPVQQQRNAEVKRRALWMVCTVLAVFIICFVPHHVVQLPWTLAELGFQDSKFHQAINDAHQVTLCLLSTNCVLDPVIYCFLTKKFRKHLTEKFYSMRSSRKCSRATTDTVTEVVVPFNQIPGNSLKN

[6] = molecular target: T2, 5-lipoxygenase (Homo sapiens, UniProt P09917); settings: background statement; cited from earlier work
T2 sequence (P09917 1-674): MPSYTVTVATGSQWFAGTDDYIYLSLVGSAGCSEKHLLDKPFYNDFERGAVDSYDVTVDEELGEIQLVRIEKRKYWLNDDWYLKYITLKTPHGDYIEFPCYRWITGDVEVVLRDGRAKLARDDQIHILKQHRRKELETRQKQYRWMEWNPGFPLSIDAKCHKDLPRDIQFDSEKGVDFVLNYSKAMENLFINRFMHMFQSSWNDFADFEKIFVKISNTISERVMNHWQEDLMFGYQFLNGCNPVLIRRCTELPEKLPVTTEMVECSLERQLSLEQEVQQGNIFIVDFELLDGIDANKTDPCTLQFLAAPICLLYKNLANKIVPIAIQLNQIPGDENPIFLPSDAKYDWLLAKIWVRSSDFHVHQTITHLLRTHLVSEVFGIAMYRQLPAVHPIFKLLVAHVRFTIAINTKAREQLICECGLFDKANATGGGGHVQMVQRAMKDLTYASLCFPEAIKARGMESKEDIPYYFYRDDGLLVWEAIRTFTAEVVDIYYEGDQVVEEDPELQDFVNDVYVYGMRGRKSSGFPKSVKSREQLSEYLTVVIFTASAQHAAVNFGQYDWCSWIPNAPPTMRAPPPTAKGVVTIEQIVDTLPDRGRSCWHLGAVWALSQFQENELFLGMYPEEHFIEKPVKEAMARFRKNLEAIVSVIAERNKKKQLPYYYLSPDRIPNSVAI

| Structure (SMILES) | IC50 [1] | IC50 [4] [nM] | other results |
| --- | --- | --- | --- |
| NC(=O)N(O)CCCC[C@@H]1CC[C@@H](COc2ccc(F)cc2)O1 | 1230 nM and 1400 nM | – | – |
| NC(=O)N(O)CCC#C[C@@H]1CC[C@@H](COc2ccc(F)cc2)O1 | 1380 nM and 1490 nM and 560 nM and 1600 nM and 720 nM | – | ex vivo LTB4 % inh. [2]: 22% |
| COc1cc([C@H]2CC[C@H](c3cc(OC)c(OC)c(OC)c3)S2)cc(OC)c1OC (relative stereo) [L-653,150, trans-2,5-bis-(3,4,5-trimethoxyphenyl)tetrahydrothiophene] | – | – | PAF antagonist activity [5]: potent PAF antagonist; inhibition of 5-lipoxygenase [6]: moderate inhibitor of 5-lipoxygenase |
| NC(=O)N(O)CCCC[C@@H]1CCC(COc2ccc(F)cc2)O1 (single isomer, unassigned) | 950 nM | – | – |

Continued, in another order:

| IC50 [1] | IC50 [4] [nM] | Structure (SMILES) | other results |
| --- | --- | --- | --- |
| – | 430 | NC(=O)N(O)CCC#C[C@H]1CC[C@@H](COc2ccc(F)cc2)O1 | ex vivo LTB4 % inh. ([3]; 60 minutes): 86%; ex vivo LTB4 % inh. ([3]; 360 minutes): 63% |
| – | 150 | NC(=O)N(O)CCC#C[C@H]1CC[C@H](COc2ccc(F)cc2)O1 | – |
